# Results: patent US8981179B2, “Transgenic non-human animal and uses thereof” (Sanofi, priority 2009, dated 2015)
# Tests used:
# [1] = system: ADβR; assay: Cardiomyocytes CreLuc luciferase assay, ADβR agonist; format: cell-based, mouse; conditions: cardiomyocytes line 229, 10 μM isoproterenol
# Experimental: The effects of forskolin and rolipram and isoproterenol on luciferase levels in cardiomyocytes was studied (FIG. 35). Cardiomyocytes were isolated from P3 pups from line 229. The cells were cultured in a 96 well plate. Compounds tested include 10 μM forskolin, 5 μM rolipram and 10 μM isoproterenol (ADβR agonist).
# [2] = system: CRE Luc reporter; assay: In vivo bioluminescence imaging of CreLuc transgenic mouse after isoproterenol; conditions: bioimaging
# Experimental: Administration of isoproterenol (right panel) increases spinal cord expression of the CRE Luc reporter compared to basal levels (left panel). The bioluminescent detection is represented visually on a white-light image of the animal as a pseudocolor representation in grayscale. […] For in vivo assays, the animals are dosed with luciferin only and then bioimaged on an IVIS bioimager to get baseline signal. The animals are then dosed with compound, and then bioimaged again at a set timepoint to examine the effects of the compound on the luciferase signal. Data can be analyzed as the fold induction of the induced signal versus the baseline signal. For the ex vivo assays, mice are dosed with either compound or vehicle, and then at a set timepoint, tissues are harvested and frozen. The tissues can then be homogenized and a luciferase assay such as Promega Luciferase assay system (Promega cat #E1500) run on the tissue extracts and the assay read on a luminometer such as the Topcount. Data can be analyzed as the relative light units per μg protein, comparing vehicle versus compound groups.
# [3] = system: ADβR; assay: Mouse embryonic fibroblasts CreLuc luciferase assay, ADβR agonist; format: cell-based; conditions: six independent CreLuc lines, 10 μM isoproterenol
# Experimental: The effects of forskolin, rolipram and isoproterenol on luciferase expression in mouse embryonic fibroblasts was investigated (FIG. 33). Mouse embryonic fibroblasts were cultured from E12 embryos from six independent CreLuc lines. Cells were plated at 20,000 cells per well. Compounds tested include 10 μM forskolin, 5 μM rolipram and 10 μM isoproterenol (ADβR agonist).
# [4] = system: cAMP pathway (CreLuc luciferase reporter) in brain slices; assay: Whole brain slice luminescence, cAMP pathway activators; format: cell-based, mouse; conditions: line 187, 1 uM isoproterenol, 2 days
# Experimental: In general, brains from CreLuc mice can be harvested and then either cut into slices on a microtome or various subregions can also be dissected out and then sliced on a microtome. The slices can then be incubated with different compounds such as forskolin and rolipram, or GPCR specific compounds. Luciferase levels can then be measured with an IVIS bioimager or a photomultiplier with a carousel to take quantitative timecourse measurements.
# Thus, isoproterenol was used to increase the luciferase signal window which allows for screening GPCR specific compounds such as Gi agonists.
# Compound activity can also be quantitated over time in a viable brain slice and luciferase expression can be visualized by a bioimager. […] Forskolin is a general activator of cAMP.
# [5] = system: ADRβ; assay: Primary striatal neurons CreLuc luciferase assay, ADβR agonist; format: cell-based, mouse; conditions: striatal neurons line 187, day 4, 10 μM, 3 μM and 1 μM, 5 hours
# Text: Any cell culture derived from the CreLuc mice may be used to screen compounds for the ability to modulate GPCRs. Luciferase expression was induced in CreLuc striatal neurons by forskolin and rolipram, and Gs agonists for DRD1 and ADβR (FIG. 16). Striatum neurons were isolated from E14 embryos. The assays were run at day 4 in culture. […]. Thus, the transgene is functional in striatal as well cortical neurons (see FIG. 10).
# [6] = system: β adrenergic receptors (ADβR); assay: Primary cortical neurons CreLuc luciferase assay, Gs modulation via ADβR; format: cell-based, mouse; conditions: cortical neurons line 187, day 3, 10 μM, 4 hours
# Text: A general schematic of the workflow for the isolation and compound treatment of primary neuronal cells from the CreLuc model is depicted in FIG. 9. Cortices or other brain subregions are removed from embryos, usually embryonic (E) day 17 or 18, but also as early as E14. The individual neurons are then isolated and plated onto 96 well assay plates. Assays are run either in triplicate or quadruplicate. The assays are run from day 3 in culture up until day 7 or day 10 in culture depending on the expression levels of the target GPCR. Compounds are added to the plates then at a set timepoint, Bright Glo (Promega, Cat #E2610) is added to the plates and the assay is then run on a TopCount or other luminometer.
# Primary cell cultures from the CreLuc mice may be used to screen compounds that are capable of modulating Gs coupled receptors. Neurons were isolated from the cortices of line 187 E18 embryos. […] The assay was run in triplicates on day three in culture. Forskolin was used at 5 μM, rolipram at 10 μM and the Gs agonists, ADβR-isoproterenol; and Dopamine-SKF82958 (MFG, Cat #C130) at 10 μM. At 4 hours, Bright Glo was added and the assays run on a Topcount. Forskolin is a general activator of cAMP. […] Forskoline and rolipram act synergistically to increase luciferase expression. […]
# [7] = system: ADβR; assay: Isolated CD4+ T cells CreLuc luciferase assay, ADβR agonist; format: cell-based, mouse; conditions: line 64 CD4+ T cells, anti CD3 24 hours, 10 μM, 4 hours
# Experimental: The effects of different Gs agonists on luciferase levels in anti CD3 stimulated CD4+ T cells isolated from CreLuc mice was studied (FIG. 19). Whole splenocyte populations were prepared by mechanical disruption. CD4+ cells were then isolated by MACS Magnetic Separation with Positive Selection (Miltenyi Biotec cat#130-049-201). The cells, 1.5×10^5 per well, were then plated on 96 well white opaque plates and then stimulated with anti CD3 antibodies (BD Pharmingen cat#553058). After 24 hours, compounds were added for an additional 4 hours. Gs agonists for DP (B[…]), EP2 (EX00000173A) and ADβR (isoproterenol) were all used at 10 μM. Forskolin 5 μM, and rolipram 10 μM. BrightGlo (Promega, Madison, Wis., cat#E2610) was added and the assay was read on the TopCount. A 25-fold increase is observed in cells treated with forskolin and rolipram. […] The transgene was responsive to specific Gs agonists as well as general modulators of the cAMP pathway.
# [8] = system: β-adrenergic receptor (ADβR); assay: Whole splenocytes CreLuc luciferase assay, ADβR agonist; format: cell-based, mouse; conditions: line 64 whole splenocytes, 10 uM, 4 hours
# Experimental: Whole splenocyte preps isolated from CreLuc mice (line 64) were used to show the effects of general cAMP inducers such as forskolin and rolipram, as well as Gs agonists on luciferase expression (FIG. 16). […] The cell suspension was then passed through a 70 um strainer into a 50 ml conical tube. […] Cells were diluted to 2×10^6/ml, and 100 ul of the cells were plated per well in a 96 well white opaque plate. […] At 24 hours, compounds were added to the plates for an additional 4 hours. The general inducers include rolipram (Sigma R6520), forskolin (Sigma F6886). […] The assay was run in triplicate. After 4 hours, 100 μl of BrightGlo (Promega, Madison, Wis., cat#E2610) and the assay was read on a TopCount luminometer. […] The preparation used in the experiment was a whole splenocyte preparation which is a mixed population of cells.
smiles,measurement,setting,value
CC(C)NCC(O)c1ccc(O)c(O)c1 (centres unmarked) [isoproterenol],increase in luciferase levels,[1],2 fold
same,spinal cord expression of the CRE Luc reporter compared to basal levels,[2],increases
same,luciferase expression in mouse embryonic fibroblasts,[3],Significant increases were also observed in three of the lines
same,luciferase expression in hippocampal brain slices,[4],induces luciferase expression levels
same,luciferase expression,[5],Significant increases
same,increased luci levels vs DMSO control,[6],11 fold
same,increase of luciferase,[7],5 fold
same,luciferase versus DMSO only control (t-test),[8],Statistically significant increases
